Where two headings read alike, the source gives them in different places.
Tests used:
[1] = molecular target: DCN2 (DCUND2) protein PONY domain (Homo sapiens (Human), UniProt Q6PH85); experiment: Measurement of Kinact/KI in the DCN2 TR-FRET Assay; type: binding; conditions: for Ki / kinact: time-dependent IC50 over 24 hrs
Protocol: A TR-FRET Assay was performed to evaluate the ability of the compounds to bind DCN-2.
The time resolved—Forster's resonance energy transfer (TR-FRET) assay was designed following the protocol established in (Scott et al., Nat Chem Biol. 2017 August; 13(8): 850-857). A recombinant form of the DCN2 (DCUND2) protein PONY domain was produced using an E. coli expression system at Viva Biotech China. The DCN2 protein was biotinylated (EZ sulfo-NHS-LC-biotin; Thermofisher) for labeling with 2.5 nM streptavidin terbium (Tb) cryptate in the reaction. The probe was changed to a non-covalent DCN1 inhibitor labeled with carboxyfluorescein (FAM; Zhou et al, Nat Commun. 2017; 8: 1150). Buffer conditions were modified to enhance protein stability by replacing TritonX with 0.05% Tween20 and increasing NaCl to 200 mM. The compounds were screened against 0.31 nM DCN1 and 40 nM FAM-labeled probe in a 40 ul reaction volume. The TR-FRET ratio between Tb-DCN1 and the FAM-labeled probe was measured in a 384-well opti-plate (Perkin Elmer) using a plate reader (BMG) at after treatment with compound (final DMSO concentration of 0.1%). The ratio was normalized to the high (DCN1 and FAM-probe) and low (DCN1 and no probe) controls for a readout of % activity (=100*(x−low)/(high−low)).
The Kinact and KI measurements were taken to allow for continuous reads over 24 hrs. Plates were read every 5 min up to 1 hr, every 15 min up to 5 hr, and every hour up to […]. Kinact and KI were calculated based on the following equations (Krippendorff B F, et al. Mechanism-based inhibition: deriving K(I) and k(inact) directly from time-dependent IC(50) values. J BiomolScreen. 2009; Mons E et al. A Comprehensive Guide for Assessing Covalent Inhibition in Enzymatic Assays Illustrated with Kinetic Simulations. CurrProtoc. 2022) where the KM of the probe against DCN2 is 21.62 nM. The Kinact and KI values could be estimated from the tight curves of the IC50 values over time.

[2] = test system: Cullin-3 (CUL3) neddylation; experiment: AlphaLISA assay for Cullin-3 (CUL3) neddylation in TF 1 cells; type: cell-based; conditions: Homo sapiens, TF-1, 3 h, 3 hours treatment
Outline: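 Neddylated CUL3 was quantified by AlphaLISA in lysates of TF 1 cells exposed for 3 h to test compound in IMDM without supplements. Percent inhibition set between vehicle and 1 μM DI-1548 positive control; IC50 derived by Hill-equation fitting of dose-response curves.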

[3] = molecular target: T1, DCN1 (DCUND1) protein PONY domain (Homo sapiens (Human), UniProt Q96GG9); experiment: TR-FRET assay, DCN1 binding with FAM-labeled probe
Outline: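 TR-FRET ratio (Tb-DCN1 to FAM-probe) read at 1, 5 and 24 hrs after compound addition. Protein: recombinant PONY domain from E. coli, biotinylated and coupled to streptavidin terbium. Either 5 nM DCN1 with 20 nM FAM-probe, or 0.31 nM DCN1 with 100 nM FAM-labelled plus 800 nM unlabelled probe.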

[4] = molecular target: T1, DCN1 (DCUND1) protein PONY domain; experiment: Off-rate measurement of reversible covalent molecules (jump dilution TR-FRET with Cy5 probe); type: binding
From the text: A typical covalent compound is assumed to stay bound to a protein for at least the life of that protein in the cell. In reality, there is a range of how long a covalent compounds remains bound before a reverse reaction takes place. Thus, some covalent bonds can be labeled as reversible as their reverse reaction takes place in a measurable amount of time under physiological conditions. The assay capitalizes on the range of covalent binders by using a high affinity covalent binder as a probe to displace the more reversible binders in an adaptation of the jump dilution method.
In this version of the jump dilution method, the increase in covalent probe binding over time was measured through a TR-FRET reaction between the covalent probe and the biotinylated target protein.
The recombinant form of the DCN1 (DCUND1) protein PONY domain was produced using an E. coli expression system at Viva Biotech (China). The DCN1 protein was biotinylated (EZ sulfo-NHS-LC-biotin; Thermofisher) for labeling with streptavidin terbium (Tb) cryptate in the reaction. This biotinylated protein was used in two forms of the TR-FRET assay as described below.
The off-rate measurement is executed in two steps based on the jump dilution method. […] The greatest dilution allowed within the constraints of the assay was chosen. These factors allow a competitive advantage for the covalent probe to replace the test compound when that compound releases from the target protein. The actual measure is the rate of increased TR-FRET signal as the covalent probe replaces the test compound over time. […] The resulting time dependent curve of the TR-FRET signal is fit to the following equation:
Y=Y0+(Plateau−Y0)*(1−exp(−K*x))
K is the rate constant (1/unit of time). The residence time is defined as the inverse of K, the rate constant. The half-life is calculated as ln(2)/K.

T1 sequence (Q96GG9 60-248): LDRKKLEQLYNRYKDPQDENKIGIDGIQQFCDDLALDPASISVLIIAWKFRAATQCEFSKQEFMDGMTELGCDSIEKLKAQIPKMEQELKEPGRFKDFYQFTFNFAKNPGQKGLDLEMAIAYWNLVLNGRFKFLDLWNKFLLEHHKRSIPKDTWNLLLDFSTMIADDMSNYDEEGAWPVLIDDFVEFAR
DCN2 (DCUND2) protein PONY domain, sequence (Q6PH85 60-248): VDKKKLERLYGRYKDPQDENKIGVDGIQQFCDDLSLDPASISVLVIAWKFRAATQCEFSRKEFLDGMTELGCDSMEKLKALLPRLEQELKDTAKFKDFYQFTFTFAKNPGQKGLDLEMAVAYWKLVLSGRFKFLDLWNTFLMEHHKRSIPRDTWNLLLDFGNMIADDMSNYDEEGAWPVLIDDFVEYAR

Row | SMILES | kinact/KI [1] [nM − 1 * min − 1] | Ki [1] [nM] | kinact [1] [min^ − 1] | IC50 [2] [nM] | kinact/KI ([1]; read-out: Kinact/KI (converted)) [M⁻¹ s⁻¹] | kinact ([1]; read-out: Kinact (converted)) [s⁻¹] | IC50 ([3]; 24 hr after treatment with compound, read-out: TR FRET IC50 24 hr) [nM] | IC50 ([3]; read-out: TR FRET IC50 1 hr, 1 hr after treatment with compound) [nM] | Category ([4]; binding mode category from off-rate assay) | residence time ([4]; inverse of rate constant K, jump dilution TR-FRET) [min] | koff ([4]; jump dilution, Cy5 covalent probe 150 nM, TR-FRET) [s⁻¹] | half-life ([4]; ln(2)/K, jump dilution TR-FRET) [min]
1 | C=C(CN1CCOCC1)C(=O)NC[C@@H](NC(=O)[C@H](Cc1nc2ccc(C(C)C)cc2s1)NC(=O)CC)C1CCCCC1 [DI-1548, reference compound] | 0.9971 | 0.355 | 0.3536 |  |  |  |  |  |  |  |  | 
2 | CCN1C(=O)[C@@H](NC(=O)c2cccc(C(F)(F)F)c2)[C@@H](C2CC2)c2c(C(=O)N3C[C@H](NC)C[C@H]3C#N)nn(C3CCOCC3)c21 [Compound I-425, N-((4S,5S)-3-((2S,4R)-2-cyano-4-(methylamino)pyrrolidine-1-carbonyl)-4-cyclopropyl-7-ethyl-6-oxo-1-(tetrahydro-2H-pyran-4-yl)-4,5,6,7-tetrahydro-1H-pyrazolo[3,4-b]pyridin-5-yl)-3-(trifluoromethyl)benzamide] |  | 21.6 |  | ≤ 100 | 5000 | 0.000115 | ≤ 200 | ≤ 200 | fast reversible | 76 | 0.000219 | 52.69
